The experiment deals with yeast cells overexpressing WT alpha-synuclein. It is filed as cell-based, Saccharomyces cerevisiae.
[1] abbreviates: preliminary study, agent at 5 μM.
[2] abbreviates: preliminary study, concentration not given.

Where two headings read alike, the source gives them in different places.

For bleomycin, for the setting “agent at 1 μg/ml”, the “effect on the growth of yeast cells overexpressing WT alpha-synuclein” value (shortened to “effect on the growth”) is listed as “negative effect on the growth”.
In the case of `O=S(=O)([O-])[O-].[Fe+2]` [FeSO4], the “effect on the growth” value (agent at 20 mM) is reported as “negative effect on the growth”.
Consider `[Cl][Fe][Cl]` [FeCl2], for which the “effect on the growth” value was “negative effect on the growth” (agent at 10 mM), “negative effect on the growth” (agent at 15 mM), “negative effect on the growth” (agent at 23 mM) and “negative effect on the growth” (agent at 50 mM).
As for `NC=O` [formamide], the “effect on the growth” value (agent at 2% in medium) is “negative effect on the growth”.
As to `NC(=O)NO` [hydroxyurea], the “effect on the growth” value (agent at 5 mg/ml) is “negative effect on the growth”.
For the compound `O=c1cn[nH]c(=O)[nH]1` [6-azauracil], under “agent at 30 μg/ml”, the “effect on the growth” value is “negative effect on the growth”.
Consider `C[C@H]1CCC/C=C/[C@@H]2C[C@H](O)C[C@H]2[C@H](O)/C=C/C(=O)O1` [brefeldin A], for which the “effect on the growth” value (agent at 100 μg/ml) is “negative effect on the growth”.
As to `Oc1c(I)cc(Cl)c2cccnc12` [clioquinol], the “ability to alleviate toxicity caused by alpha-synuclein overexpression” value (from here on “ability to alleviate toxicity caused”) under setting [1] was “alleviate toxocity”.
In the case of `C[C@]12CC[C@H]3[C@@H](CCC4=CC(=O)CC[C@@]43C)[C@@H]1CC[C@@H]2C(=O)CO` [Deoxycorticosterone], the “ability to alleviate toxicity caused” value under setting [2] is given as “alleviate toxocity”.
Consider `CC[C@@]1(O)C(=O)OCc2c1cc1n(c2=O)Cc2cc3ccccc3nc2-1` [camptothecin], for which, where the note is “agent at 5 μg/ml”, the “effect on the growth” value is reported as “negative effect on the growth”. Where the note is “preliminary study, agent at 0.1 μg/ml”, the “ability to alleviate toxicity caused” value is recorded as “alleviate toxocity”.
For `[Cl-].[Cl-].[Mg+2]` [MgCl2], the “effect on the growth” value (agent at 0.5 M) is listed as “negative effect on the growth”.
For the compound `O=S(=O)([O-])[O-].[Mg+2]` [MgSO4], the “effect on the growth” value (agent at 0.5 M) was “negative effect on the growth”.
Consider `CC1=CC(=O)c2ccccc2C1=O` [menadione], for which, for the setting “agent at 20-50 μM”, the “effect on the growth” value is “negative effect on the growth”.
Take `[Ca+2].[Cl-].[Cl-]` [CaCl2]: the “effect on the growth” value (agent at 0.5 M) is on record as “negative effect on the growth”.
Turning to `NC(N)=O` [urea], for the setting “agent at 1 mg/ml”, the “effect on the growth” value is listed as “negative effect on the growth”.
As to `N[C@@H](Cc1ccc(O)c(O)c1)C(=O)O` [L-DOPA, L-dihydroxyphenylalanine], the “ability to alleviate toxicity caused” value under setting [2] is “alleviate toxocity”.
With `N[C@@H](CCC(=O)N[C@@H](CS)C(=O)NCC(=O)O)C(=O)O` [glutathione], the “ability to alleviate toxicity caused” value is “alleviate toxocity”.
Take protamine sulphate: where the note is “preliminary study, agent at 250 μM”, the “ability to alleviate toxicity caused” value was “alleviate toxocity”.
In the case of `NC[C@@H]1O[C@H](O[C@H]2[C@@H](O)[C@H](O[C@@H]3[C@@H](O)[C@H](N)C[C@H](N)[C@H]3O[C@H]3O[C@H](CO)[C@@H](O)[C@H](O)[C@H]3N)O[C@@H]2CO)[C@H](N)[C@@H](O)[C@@H]1O` [paromomycin], the “ability to alleviate toxicity caused” value (preliminary study, agent at 200 μg/ml) was “alleviate toxocity”.
For the compound `[Cl-].[Rb+]` [RbCl], for the setting “agent at 0.2 M”, the “effect on the growth” value was “negative effect on the growth”.
As for `O=S(=O)([O-])[O-].O=S(=O)([O-])[O-].O=S(=O)([O-])[O-].[Fe+3].[Fe+3]` [Fe2(SO4)3], the “effect on the growth” value (agent at 8.5 mM) is reported as “negative effect on the growth”.
Turning to `C=CCC(N)C(=O)O` (racemic) [DL-C-allylglycine], the “ability to alleviate toxicity caused” value (preliminary study, agent at 0.025 mg/ml) was “alleviate toxocity”.
On to `O=S(=O)([O-])[O-].[Cu+2]` [CuSo4], for which the “effect on the growth” value reads like this: (agent at 2.5 mM) “negative effect on the growth”; (agent at 5 mM) “negative effect on the growth”.
`C[C@@H](O)CC(=O)O` [(R)-(−)-3-hydroxybutirate]: under setting [2], the “ability to alleviate toxicity caused” value was “alleviate toxocity”.
Turning to `N[C@@H](CO)C(=O)O` [serine], for the setting “preliminary study, agent at 1 mg/ml”, the “ability to alleviate toxicity caused” value is given as “alleviate toxocity”.
Consider `Cl.N=C(N)N` [GuHCl], for which the “effect on the growth” value (agent at 20 (unit not given)) is “negative effect on the growth”.
As for `[Cl-].[Cl-].[Co+2]` [CoCl2], the “effect on the growth” value is “negative effect on the growth”.
Consider `[Cl-].[Cs+]` [CsCl], for which the “effect on the growth” value (agent at 0.1 M) is “negative effect on the growth”.
As for `O=C[C@@H](O)[C@H](O)[C@H](O)CO` [arabinose], the “effect on the growth” value (agent at 2% in medium) was “negative effect on the growth”.
Take `[Cl-].[Cl-].[Sr+2]` [SrCl2]: the “effect on the growth” value (agent at 0.5 M) is reported as “negative effect on the growth”.
As to `Nc1c(/N=N/c2ccc(-c3ccc(/N=N/c4cc(S(=O)(=O)O)c5ccccc5c4N)cc3)cc2)cc(S(=O)(=O)O)c2ccccc12` [Congo Red], the “ability to alleviate toxicity caused” value under setting [1] is listed as “alleviate toxocity”.
For the compound `CN[C@H]1C[C@@H](N)[C@H](O)[C@@H](O[C@@H]2O[C@H](CO)[C@H](O)[C@@H]3OC4(O[C@H]23)O[C@H]([C@@H](N)CO)[C@H](O)[C@H](O)[C@H]4O)[C@@H]1O` (some centres unmarked) [Hygromycin B], the “ability to alleviate toxicity caused” value (preliminary study, agent at 50 μg/ml) is recorded as “alleviate toxocity”.
On to `CCN(CC)CCCC(C)Nc1ccnc2cc(Cl)ccc12` (centres unmarked) [chloroquine], for which, under “preliminary study, agent at 4.2 μM”, the “ability to alleviate toxicity caused” value is “alleviate toxocity”.
Take `CCSCC[C@H](N)C(=O)O` [L-ethionine]: the “ability to alleviate toxicity caused” value (preliminary study, agent at 1 μg/ml) is listed as “alleviate toxocity”.
Take `O=C(O)c1cc(/N=N/c2ccc(-c3ccc(/N=N/c4ccc(O)c(C(=O)O)c4)cc3)cc2)ccc1O` [chrysamine G]: the “ability to alleviate toxicity caused” value (preliminary study, agent at 1.0 μM) was “alleviate toxocity”.
In the case of `C[n+]1ccc(-c2cc[n+](C)cc2)cc1` [paraquat], for the setting “agent at 1 mM”, the “effect on the growth” value is “negative effect on the growth”.
As to `O=C(O)CCCc1ccc(N(CCCl)CCCl)cc1` [chlorambucil], under “agent at 3 mM”, the “effect on the growth” value is “negative effect on the growth”.
Take `[O]=[V]([O-])([O-])[O-]` [vanadate]: the “effect on the growth” value is “negative effect on the growth” (agent at 0.1 mM); “negative effect on the growth” (agent at 1 mM); “negative effect on the growth” (agent at 2 mM); “negative effect on the growth” (agent at 4 mM); “negative effect on the growth” (agent at 7 mM+KCl).

For the origin of these results see patent US9518284B2 (priority 2001, dated 2016).
